Values quoted from earlier work, collected in US5932596A, “Imidazoylalkyl substituted with a six membered nitrogen containing nitrogen containing heterocyclic ring” (Schering Corporation, priority 1995, dated 1999).

Tested on: H3 receptors
Details: rat brain; Arrang et al.

Q: Which “maximal inhibition of release” value does the source give for `NCCc1c[nH]cn1` [histamine] here?
A: approximately 60%
